Values quoted from earlier work, collected in US6770263B1, “Compositions and methods for the treatment of aches and pains” (NatureWell, Incorporated, priority 2001, dated 2004).

Settings: following the administration of 500 mg aspirin

CC(=O)Oc1ccccc1C(=O)O [aspirin, acetylsalicylic acid]
plasma level: 130 µM
